Measurements reported in article PMC4747952, “Development of TASP0410457 (TASP457), a novel dihydroquinolinone derivative as a PET radioligand for central histamine H3 receptors” (EJNMMI Research, 2016).

Tests used:
monkey H3Rs = target: T1, monkey H3Rs (Macaca mulatta, UniProt Q865E1); experiment: In vitro binding to H3Rs, monkey frontal cortex membranes, [^3H]N-α-methylhistamine; conditions: 1 nM [^3H]N-α-methylhistamine, geometric mean, n = 3, read-out: Affinity for H3Rs Monkey, IC50
T1 construct: Rat cerebral cortex and monkey frontal cortex were dissected; from tissue; host or cells: monkey frontal cortex membranes
Method: (§1) Rat cerebral cortex and monkey frontal cortex were dissected, homogenized with 50 mM Tris buffer (pH 7.4) containing 5 mM EDTA and Protease Inhibitor Cocktail Tablets (Roche Diagnostics, Indianapolis, IN) and centrifuged at 48,000×g for 15 min at 4 °C. The pellets were then suspended in binding buffer (50 mM Tris containing 5 mM EDTA, pH 7.4) and stored at −80 °C as membrane preparations.
(§2) The membrane preparations were thawed and incubated in the binding buffer containing 0.1 % bovine serum albumin, 1 nM [^3H]N-α-methylhistamine (PerkinElmer, Waltham, MA) with various concentrations of a dihydroquinolinone derivative (i.e., test compound) at 25 °C for 1 h. The reaction was terminated by rapid filtration through 96-well GF/C filter plates (PerkinElmer) presoaked with 0.5 % polyethyleneimine (Wako, Osaka, Japan). After washes with ice-cold binding buffer, the plates were dried and filled with Microscint-o (PerkinElmer). The radioactivity retained on the filters was counted using a TopCount NXT (PerkinElmer). Total and nonspecific radioligand binding was determined by reaction without and with 10 μM thioperamide and clobenpropit, respectively. The specific radioligand binding was then calculated by subtracting the nonspecific binding from the total binding. The IC50 value for inhibition of the radioligand binding by the test compound was determined using a nonlinear fit of the concentration-response curve for each test compound using SAS 9.2 (SAS Institute Inc., Cary, NC). Data were expressed as the geometric means of IC50 values from three independent experiments run in duplicate.

[1] = Ex vivo pharmacokinetic assessment in the rat brain using LC-MS/MS; conditions: 10 μg/kg intravenous, n = 3
Method: The rats were decapitated at 5, 15, 30, 60, and 120 min after intravenous administration of TASP0390136, TASP0390174, TASP0410426, TASP0410427, TASP0410457, or TASP0434988 at a dose of 10 μg/kg. The cerebellum and forebrain, including the medial prefrontal and cingulate cortices and anterior striatum, were dissected and homogenized with four volumes of distilled water. The homogenates were protein-precipitated with methanol/acetonitrile (1:9) and were centrifuged at 3974×g for 10 min at 4 °C. The resultant supernatants were injected into an HPLC (Shimadzu-20AD, Shimadzu, Kyoto, Japan) and a tandem mass spectrometer (API4000, AB SCIEX, Framingham, MA) using a Shim-pak XR-ODS column (3.0 × 30 mm, Shimadzu) at 50 °C. TASP0410457 was eluted with a mobile phase consisting of 10 mM of ammonium acetate/acetonitrile with a linear gradient at a flow rate of 1.3 mL/min, and ammonium formate instead of ammonium acetate was used for eluting the other five compounds. […] The eluted TASP0390136, TASP0390174, TASP0410426, TASP0410427, TASP0410457, and TASP0434988 were ionized using an electrospray interface and were detected using reaction monitoring of the transitions of m/z 395 to 91, 395 to 98, 413 to 98, 425 to 98, 408 to 138, and 407 to 138, respectively. A dihydroquinolinone compound (6-[(1-cyclobutylpiperidin-4-yl)oxy]-1-(3,5-difluorophenyl)-3,4-dihydroquinolin-2(1H)-one) was used as an internal standard for all assays. The lower qualification limit for TASP0410457 was 0.05 ng/g tissue, and the limit for the other five compounds was 0.15 ng/g tissue. Data were expressed as standardized uptake values (SUVs) calculated as follows: SUV=tissueconcentrationg/g×bodyweightg/injecteddoseg

rat H3R = target: T2, rat H3R (Rattus norvegicus, UniProt Q9QYN8); experiment: In vitro binding to H3Rs, rat cerebral cortex membranes, [^3H]N-α-methylhistamine; conditions: 1 nM [^3H]N-α-methylhistamine, geometric mean, n = 3, read-out: Affinity for H3Rs Rat, IC50
T2 construct: Rat cerebral cortex and monkey frontal cortex were dissected; from tissue; host or cells: rat cerebral cortex membranes
Method: as §1, §2

Glutamate AMPA = experiment: Off-target binding (Cerep); set-up: unit of the concentration uncertain
Description: (§3) Off-target binding of compounds assessed using an in-house assay (M4) and a commercial battery (all others) (Cerep, Celle L'Evescault, France).
(§4) Concentration % Inhibition Concentration % Inhibition Concentration % Inhibition […]
(§5) *1α -amino-3-hydroxy-5-methyl-4-isoxazolepropionic acid receptor; *2N-methyl-D-aspartate receptor; *3Strychnine-insensitive glycine-binding module of NMDA receptor; *4Phencyclidine-binding site of NMDA receptor; *5ATP-sensitive potassium channel; *6Voltage-dependent potassium channel; *7small conductance calcium-activated potassium channel; *85-hydroxytryptamine 1A receptor

[2] = system: Glutamate PCP (Phencyclidine-binding site of NMDA receptor); experiment: Off-target binding (Cerep); set-up: unit of the concentration uncertain
Description: as §3, §4, §5

K+ channel KV = experiment: Off-target binding (Cerep); set-up: unit of the concentration uncertain
Description: as §3, §4, §5

[3] = system: Glutamate Glycine (Strychnine-insensitive glycine-binding module of NMDA receptor); experiment: Off-target binding (Cerep); set-up: unit of the concentration uncertain
Description: as §3, §4, §5

P-glycoprotein (MDR1) = target: T3, P-glycoprotein (MDR1) (Homo sapiens, UniProt P08183); experiment: P-glycoprotein-mediated transcellular transport, LLC-GA5-COL300 cells; assay type: in vitro ADME; conditions: for susceptibility for P-glycoprotein (substrate or not): assumed criterion: efflux ratio (ER) exceeding 2.00; for efflux ratio at 2 h, 1 µM: human, LLC-PK1, ER=Papp, b to a/Papp, a to b, LLC-GA5-COL300 cells
T3 construct: expressed in transfected cells; host or cells: LLC-GA5-COL300
Method: (§6) Assays for P-glycoprotein-mediated transcellular transport of compounds LLC-GA5-COL300 cells expressing human P-glycoprotein were seeded at a density of 4.5 × 10^5 cells/cm2 onto polycarbonate membrane filters of 12-well cell culture insert plates and cultured at 37°C in a humidified incubator containing 5% CO2 for 3 days. After each cell monolayer was pre-incubated at 37°C for 20 min in Hank’s balanced salt solution containing 10 mM HEPES (HBSS buffer), transcellular transport experiments were initiated by adding the test compound solution to the apical or basal side of the cell culture inserts. HBSS buffer was sampled from the compartment opposite of that spiked with the test compounds at 0.5, 1, 1.5 and 2 h after initiation of the experiments, and concentrations of the test compounds were determined using LC-MS/MS. The apparent permeability coefficient (Papp) of the test compounds was calculated using the following equation:
(§7) Papp= dQ/dt / C0 / A Eq. 1, where dQ/dt represents the rate of permeation of the compounds, C0 is the initial concentration of the test compounds ([…]), and A is the area of the monolayer. The efflux ratio (ER) was defined as […]
ER=Papp, b to a/Papp, a to b Eq. 2, where Papp, b to a and Papp, a to b represent Papp in the basal-to-apical (b to a) and apical-to-basal (a to b) directions, respectively. […]

[4] = Lipophilicity measurement (Log D); assay type: physicochemical; conditions: pH 7.4; octanol and phosphate buffer (pH7.4); read-out: Log D7.4
Method: Lipophilicity measurement
Log D was determined by partitioning each compound between an octanol and phosphate buffer […]
each layer using HPLC with ultraviolet (UV) detection.
as §6, §7

[5] = Concentration 10 (unit uncertain)
[6] = Concentration 1 (unit uncertain)

T2 sequence (Q9QYN8 whole entry): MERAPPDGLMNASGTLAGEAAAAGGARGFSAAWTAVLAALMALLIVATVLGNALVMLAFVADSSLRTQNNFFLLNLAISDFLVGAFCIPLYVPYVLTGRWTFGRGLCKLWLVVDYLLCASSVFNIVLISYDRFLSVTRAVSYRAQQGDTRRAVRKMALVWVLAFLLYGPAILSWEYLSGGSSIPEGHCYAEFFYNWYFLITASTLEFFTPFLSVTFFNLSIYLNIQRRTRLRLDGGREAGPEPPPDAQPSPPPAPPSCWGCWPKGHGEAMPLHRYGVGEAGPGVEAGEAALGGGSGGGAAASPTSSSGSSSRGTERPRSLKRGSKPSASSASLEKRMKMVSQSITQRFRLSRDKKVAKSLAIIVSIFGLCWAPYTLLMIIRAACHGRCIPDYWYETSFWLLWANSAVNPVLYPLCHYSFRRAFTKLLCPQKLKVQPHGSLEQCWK
T3 sequence (P08183 whole entry): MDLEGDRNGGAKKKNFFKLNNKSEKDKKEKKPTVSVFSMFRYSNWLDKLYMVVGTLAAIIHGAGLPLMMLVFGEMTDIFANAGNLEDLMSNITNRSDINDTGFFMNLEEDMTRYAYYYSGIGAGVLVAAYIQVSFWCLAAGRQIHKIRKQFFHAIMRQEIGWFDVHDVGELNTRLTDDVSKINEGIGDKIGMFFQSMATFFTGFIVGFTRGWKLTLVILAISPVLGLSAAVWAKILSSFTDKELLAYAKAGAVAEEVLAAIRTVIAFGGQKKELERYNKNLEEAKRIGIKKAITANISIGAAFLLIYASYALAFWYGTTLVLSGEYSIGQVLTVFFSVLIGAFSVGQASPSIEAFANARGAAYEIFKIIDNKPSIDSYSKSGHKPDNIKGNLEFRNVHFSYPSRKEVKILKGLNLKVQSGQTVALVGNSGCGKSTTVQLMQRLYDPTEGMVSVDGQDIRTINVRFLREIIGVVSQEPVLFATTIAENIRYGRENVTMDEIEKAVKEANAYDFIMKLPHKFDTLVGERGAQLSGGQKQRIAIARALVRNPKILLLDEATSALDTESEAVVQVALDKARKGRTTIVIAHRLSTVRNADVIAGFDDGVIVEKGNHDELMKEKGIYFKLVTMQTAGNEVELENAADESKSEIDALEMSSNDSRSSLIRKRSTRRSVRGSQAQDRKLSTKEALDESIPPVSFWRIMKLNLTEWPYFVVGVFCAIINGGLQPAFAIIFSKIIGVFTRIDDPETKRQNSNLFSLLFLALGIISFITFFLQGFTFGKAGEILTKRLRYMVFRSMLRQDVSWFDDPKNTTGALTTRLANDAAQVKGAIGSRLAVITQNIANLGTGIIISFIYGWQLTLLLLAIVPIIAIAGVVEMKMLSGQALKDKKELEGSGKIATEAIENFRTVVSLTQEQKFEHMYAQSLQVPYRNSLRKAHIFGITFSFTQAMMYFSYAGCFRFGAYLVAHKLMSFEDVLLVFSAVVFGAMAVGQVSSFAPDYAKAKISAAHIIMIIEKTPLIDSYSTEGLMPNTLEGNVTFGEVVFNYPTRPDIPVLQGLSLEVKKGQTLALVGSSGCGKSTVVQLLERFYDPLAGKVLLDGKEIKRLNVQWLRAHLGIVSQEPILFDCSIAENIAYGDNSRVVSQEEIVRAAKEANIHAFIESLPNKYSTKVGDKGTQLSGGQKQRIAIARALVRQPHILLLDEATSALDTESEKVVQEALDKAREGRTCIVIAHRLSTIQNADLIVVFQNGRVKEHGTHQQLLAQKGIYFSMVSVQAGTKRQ
T1 sequence (Q865E1 1-445): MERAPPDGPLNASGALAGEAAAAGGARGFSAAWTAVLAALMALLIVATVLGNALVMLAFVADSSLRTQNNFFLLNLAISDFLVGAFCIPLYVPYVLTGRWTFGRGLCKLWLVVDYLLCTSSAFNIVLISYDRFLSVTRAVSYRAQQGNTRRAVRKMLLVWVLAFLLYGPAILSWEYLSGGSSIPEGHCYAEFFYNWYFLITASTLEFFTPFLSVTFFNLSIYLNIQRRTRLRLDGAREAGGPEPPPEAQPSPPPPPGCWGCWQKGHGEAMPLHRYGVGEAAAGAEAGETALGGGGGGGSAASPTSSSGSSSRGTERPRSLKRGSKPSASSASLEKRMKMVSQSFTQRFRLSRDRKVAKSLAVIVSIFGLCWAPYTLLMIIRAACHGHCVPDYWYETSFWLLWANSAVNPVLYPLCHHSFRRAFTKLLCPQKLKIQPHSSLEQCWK

| IC50 (monkey H3Rs) [nM] | Mean peak concentration in the forebrain expressed as SUV [1] [SUV] | IC50 (rat H3R) [nM] | % Inhibition (Glutamate AMPA; [5]) [%] | % Inhibition [2, 5] [%] | % Inhibition (K+ channel KV; [5]) [%] | % Inhibition [3, 5] [%] | susceptibility for P-glycoprotein (substrate or not) (P-glycoprotein (MDR1)) | efflux ratio at 2 h, 1 µM (P-glycoprotein (MDR1)) | logD [4] | % Inhibition (Glutamate AMPA; [6]) [%] | % Inhibition [2, 6] [%] | % Inhibition (K+ channel KV; [6]) [%] | % Inhibition [3, 6] [%] | Structure (SMILES) |
| --- | --- | --- | --- | --- | --- | --- | --- | --- | --- | --- | --- | --- | --- | --- |
| 1.06 | 0.30 | 2.74 | -18 | -2 | -15 | 12 | P-glycoprotein substrates | 6.29 | 1.36 | – | – | – | – | COc1ccc(N2C(=O)CCc3cc(OCCCN4CCC[C@H]4C)ccc32)cc1 [TASP0390136, 1-(4-methoxyphenyl)-6-{3-[(2R)-2-methylpyrrolidin-1-yl]propoxy}-3,4-dihydroquinolin-2(1H)-one] |
| 1.8 | 0.85 | 2.34 | 1 | -2 | -11 | -5 | not a substrate of P-glycoprotein | 1.64 | 1.79 | – | – | – | – | COc1ccc(N2C(=O)CCc3cc(OC4CCN(C5CCC5)CC4)ccc32)cn1 [TASP0410457, 6-[(1-Cyclobutylpiperidin-4-yl)oxy]-1-(6-methoxypyridin-3-yl)-3,4-dihydroquinolin-2(1H)-one] |
| 0.565 | 0.58 | 0.783 | – | – | – | – | P-glycoprotein substrates | 2.14 | 2.22 | 0 | 9 | -1 | -8 | COc1ccc(N2C(=O)CCc3cc(OC4CCN(C5CCC5)CC4)ccc32)cc1 [TASP0434988, 6-[(1-cyclobutylpiperidin-4-yl)oxy]-1-(4-methoxyphenyl)-3,4-dihydroquinolin-2(1H)-one] |
